Here are results for 2 compounds from US12458630B2, “Combination therapy for cancer” (The Regents of the University of California, priority 2020, dated 2025).

The subject of assay [1] is KC6141 mouse PDAC cells. The assay is described as follows: Cell viability assay (CCK-8). In kind it is cell-based. To be noted: 3 days; for cell viability vs vehicle: WT, Ikkα-KD, Nhe1-KD, Ikkα-KD;Nhe1-KD KC6141 cells. How it is done: Extracellular Matrix (ECM) Preparation. Skin fibroblasts were seeded on 6/12/96-well plates. One day after plating, cells were switched into DMEM (with pyruvate) with 10% dialysed FBS supplemented with or without 500 μM ^3H-proline and 100 μM Vitamin C. Cells were cultured for 6 days with media renewal every 24 h. After six days, skin fibroblasts were removed by washing in 1 ml or 500 μl or 100 μl per well PBS with 0.5% (v/v) Triton X-100 and 20 mM NH4OH. ECM was washed five times with PBS before plating KC6141 cells. The following day, KC6141 cells were switched into the indicated medium for 24 or 72 hrs.
Cell viability assay. Cell viability was determined with Cell Counting Kit-8 assay (CCK-8 assay kit, Glpbio). Cells were plated in 96-well plates at a density of 3000 cells (MIA PaCa-2) or 1500 cells (KC6141) per well and incubated overnight prior to treatment. EIPA (10 μM), MRT68921 (600 nM) or erlotinib (2 μM, Sigma) were added to the wells for 72 and 96 hrs. Next, 10 μL of CCK-8 was added to each well. The optical density was read at 450 nm using a microplate reader (FilterMax F5, Molecular Devices, USA) at day 0, 1, 2, 3, and 4. For glutamine-deprivation assays, cells in 96-well plates were rinsed briefly in PBS and incubated in the 0.2 mM glutamine. Glutamine-free DMEM medium was supplemented with 0.2 mM glutamine in the presence of 10% dialysed FBS and 25 mM HEPES. For some conditions, the medium was supplemented with a final concentration of 2% BSA (Fraction V, fatty-acid-, nuclease and protease-free, Calbiochem). For all experiments, media were replaced every 24 hrs. Viable cell counts were obtained using CCK-8 assay described as above.
In some embodiments, cells were plated in 96-well plates coated with or without ECM at a density of 3000 cells (MIA PaCa-2, 1444, 1305, COLO 357/FG) or 1500 cells (KC6141) per well and incubated overnight prior to treatment. EIPA (10.5 μM), IPI549 (600 nM), MBQ-167 (500 nM), MRT68921 (600 nM) or erlotinib (2 μM, Sigma), ML385 (10 μM, Sigma), HCQ (10 μM or 80 μM) or their combinations were added to the wells for 24, 72 or 96 hrs. Next, 10 μL of CCK-8 was added to each well. The optical density was read at 450 nm using a microplate reader (FilterMax F5, Molecular Devices, USA) at day 0, 1, 2, 3, and 4. For glutamine-deprivation assays, cells in 96-well plates were rinsed briefly in PBS and incubated in the 0.2 mM glutamine. Glutamine-free DMEM medium was supplemented with 0.2 mM glutamine in the presence of 10% dialyzed FBS and 25 mM HEPES. For glucose-deprivation assays, cells in 96-well plates were rinsed briefly in PBS and incubated in the 0.5 mM glucose. Glucose-free DMEM medium was supplemented with 0.5 mM glucose in the presence of 10% dialyzed FBS and 25 mM HEPES. For some conditions, the medium was supplemented with a final concentration of 2% BSA (Fraction V, fatty-acid-, nuclease and protease-free, Calbiochem). For all experiments, media were replaced every 24 hrs. Viable cell counts were obtained using CCK-8 assay described as above.

Assay [2] concerns human PDAC 1334 tumors. The assay can be described thus: s.c. tumors in nude mice. Type of assay: in vivo, mouse. Conditions: EIPA 7.5 mg/kg, MRT68921 10 mg/kg, 15 days. As to the method:
(§1) In some embodiments, to evaluate the effects of MP on tumor growth or survival in the autochthonous model, Kras^G12D;Ikkα^ΔPEC mice, at 4 weeks of age, were treated with vehicle or 10 mg/kg EIPA (Sigma) by i.p. injection every other day for 1 month. After that, surgically removed pancreata were weighed and used for further analysis and other mice were continued to maintain for survival. To evaluate the effects of MP on heterotopic xenografts, female homozygous BALB/c Nu/Nu nude mice were injected subcutaneously (s.c.) in both flanks at 7 weeks of age with 10^6 parental and IKKα^Δ MIA PaCa-2 cells or 1334 and 1444 cells mixed at a 1:1 dilution with BD Matrigel (BD Biosciences) in a total volume of 100 μl. Mice were treated with vehicle (DMSO in PBS), EIPA (7.5 mg/kg), MRT68921 (10 mg/kg) or MRT68921 and EIPA for 15 days when tumors attained an average volume of 50-100 mm^3. Volumes (1/2×(width^2×length)) of s.c. tumors were calculated on the basis of measurements using digital calipers after 15 days of treatment. To evaluate the combination effects of autophagy and MP inhibition on tumor growth, C57BL/6 mice were injected s.c. at 7 weeks of age with 10^6 parental, Ikkα KD, Nhe1 KD or Ikkα+Nhe1 DKD KC6141 cells in a total volume of 100 μl. Mice were treated with or without vehicle, EIPA (7.5 mg/kg), MRT68921 (10 mg/kg), or EIPA and MRT68921 for 21 days when tumors attained an average volume of 50-100 mm^3. Tumor volumes were calculated as above.

Assay [3] deals with human PDAC 1444 tumors. The assay can be described thus: s.c. tumors in nude mice. Type of assay: in vivo, mouse. To be noted: EIPA 7.5 mg/kg, MRT68921 10 mg/kg, 15 days. As to the method:
as §1

Assay [4] deals with KC6141 tumors. The assay is described as follows: s.c. tumors in C57BL/6 mice. In kind it is in vivo, mouse. To be noted: EIPA 7.5 mg/kg, MRT68921 10 mg/kg, 21 days (3 weeks). As to the method: To evaluate the effects of MP on tumor growth in the autochthonous model, Kras^G12D;Ikkα^Δpan mice, at 4 weeks of age, were treated with vehicle or 10 mg/kg EIPA (Sigma) by intraperitoneal injection every other day for 1 month. After that, surgically removed pancreata were weighed and used for further analysis. To evaluate the effects of MP on heterotopic xenografts, female homozygous BALB/c Nu/Nu nude mice were injected subcutaneously (s.c.) in both flanks at 7 weeks of age with 10^6 parental and IKKα KO MIA PaCa-2 cells mixed at a 1:1 dilution with BD Matrigel (BD Biosciences) in a total volume of 100 μl. Mice were treated with EIPA (7.5 mg/kg) for 15 days when tumors attained an average volume of 50-100 mm^3. As a control, animals treated with vehicle (DMSO in PBS) were used. Volumes (1/2×(width^2×length)) of s.c. tumors were calculated on the basis of measurements using digital calipers after 15 days of treatment. […] Tumor volumes were calculated as above.
In some embodiments, to evaluate the effects of MP on tumor growth or survival in the autochthonous model, Kras^G12D;Ikkα^ΔPEC mice, at 4 weeks of age, were treated with vehicle or 10 mg/kg EIPA (Sigma) by i.p. injection every other day for 1 month. […] Volumes (1/2×(width^2×length)) of s.c. tumors were calculated on the basis of measurements using digital calipers after 15 days of treatment. […] Tumor volumes were calculated as above.

For the compound `CN1CCc2cc(Nc3ncc(C4CC4)c(NCCCNC(=O)C4CCC4)n3)ccc2C1` [MRT68921], in assay [1] (IKKα KD KC6141 cells, erlotinib 2 μM, MRT68921 600 nM), the “cell growth, single agent” value was “limited”. For the same compound, the “cell viability vs vehicle” value in assay [1] is reported as “suppression of cell viability”. Further, the tumor growth entry in assay [2] is “insensitive to MRT68921”; in assay [3], “small effect”; in assay [4], “small effect”.

In the case of `CCN(c1nc(N)c(C(=O)N=C(N)N)nc1Cl)C(C)C` [EIPA, 5-(N-ethyl-N-isopropyl) amiloride], the “sensitivity to single agent (cell viability)” value in assay [1] (IKKα-deficient KC6141 cells) is “very sensitive”. For the same compound, the “cell viability enhanced by extracellular matrix (ECM)” value in assay [1] (WT and IKKα KD 6141 cells on ECM, 0.5 mM glucose, EIPA, IPI549 600 nM, MBQ-167 500 nM) is recorded as “suppressed”. In addition, in assay [1], the “cell viability vs vehicle” value is “suppression of cell viability”. The results for the tumor growth entry in assay [2], in assay [3] and in assay [4] were “sensitive to EIPA”, “small effect” and “small effect”, respectively.
